Measured values from ChEMBL document CHEMBL4339219, “Drug Design and Synthesis of First in Class PDZ1 Targeting NHERF1 Inhibitors as Anticancer Agents” (ACS Med Chem Lett, 2019).

How the values were obtained:
SW480 [1] = assay: cells; settings: Homo sapiens, SW480, 72 h
DLD-1 [2] = assay: cells; settings: Homo sapiens, DLD-1, 72 h
SW480 [3] = assay: cells; settings: Homo sapiens, SW480, 72 h; remark: listed apart in the source
DLD-1 [4] = assay: cells; settings: Homo sapiens, DLD-1, 72 h; remark: listed apart in the source
SW-620 [5] = assay: cells; settings: Homo sapiens, SW-620, 72 h
DLD-1 [6] = assay: cells; settings: Homo sapiens, DLD-1, 72 h; remark: listed apart in the source
SW480 [7] = assay: cells; settings: Homo sapiens, SW480, 72 h; remark: listed apart in the source
HEK-293T = assay: Effect on FOP reporter expression in LiCl-induced HEK293T cells incubated for 24 hrs by luciferase reporter gene assay; type: ADME, cell-based; settings: human
SW-620 [8] = assay: cells; settings: Homo sapiens, SW-620, 72 h; remark: listed apart in the source

SMILES | IC50 (SW480 [1]) [nM] | IC50 (DLD-1 [2]) [nM] | IC50 (SW480 [3]) [nM] | IC50 (DLD-1 [4]) [nM] | IC50 (SW-620 [5]) [nM] | IC50 (DLD-1 [6]) [nM] | IC50 (SW480 [7]) [nM] | Activity (HEK-293T) | IC50 (SW-620 [8]) [nM]
Cc1cc([N+](=O)[O-])ccc1NS(=O)(=O)c1cc(Cl)ccc1Cl | 10000 | 28000 |  |  |  |  |  |  | 
O=C(Nc1ccccc1CO)c1c[nH]c2ccc(Cl)cc12 |  |  | 3000 | 100 | 22000 | 800 | 300 |  | 
CCOC(=O)c1ccc(NS(=O)(=O)c2ccc(Br)cc2)cc1 |  |  |  |  |  |  |  | Non-Toxic | 
O=C(Nc1ccc(CO)cc1)c1[nH]c2ccc(Cl)cc2c1Cc1ccccc1 |  |  | 900 | 100 | 18000 | 500 | 100 |  | 500
